Reference: patent US20090239926A1, “METHODS FOR THE TREATMENT OF PSORIASIS OR PSORIATIC ARTHRITIS USING CYCLOPROPYL-N-CARBOXAMIDE” (priority 2008, published 2009)
Values joined by “and” are separate entries in the source; they are usually repeats but may differ in a detail not shown here. Equal entries are not always repeated.

Tests used:
[1] = test system: LPS-stimulated human whole blood TNF-α production; test: LPS-induced TNF-α production in human whole blood; format: cell-based
Procedure: LPS-induced TNF-α production in Human Whole Blood: The ability of Compound A to inhibit LPS-induced TNF-α production by human whole blood was measured as described above for the LPS-induced TNF-α assay in human PBMC, except that freshly drawn whole blood was used instead of PBMC.

[2] = test system: CD18 expression on neutrophils; test: fMLF-induced neutrophil CD18 expression; format: cell-based; details: Homo sapiens, 0.5 h, 30 nM fMLF, 30 minutes, flow cytometry
Procedure: CD18/CD11b (Mac-1) expression on neutrophils was measured with the following modifications. (Derian, C. K., et al., J Immunol, 1995. 154(1): 308-17). Neutrophils were isolated as described above, then resuspended in complete medium at 1×10^6 cells/ml, pretreated with Compound A at 10, 1, 0.1, 0.01, and 0 μM in duplicate at a final DMSO concentration of 0.1% for 10 minutes at 37° C. 5% CO2. Cells were then stimulated with 30 nM fMLF for 30 minutes and then chilled to 4° C. Cells were treated with rabbit IgG (Jackson ImmunoResearch Labs, West Grove, Pa., USA) (10 μg/1×10^6 cells) to block Fc receptors, stained with CD18-FITC and CD11b-PE (Becton Dickinson), and analyzed by flow cytometry on a FACSCalibur. CD18/CD11b expression (mean fluorescence) in the absence of stimulation was subtracted from all samples to obtain inhibition curves and calculate IC50.

[3] = test system: normal human skin xenotransplanted onto beige-SCID mice injected with psoriatic patient NK cells; test: Human NK cell-driven psoriasis model: human skin xenotransplanted onto beige-SCID mice; format: in vivo; details: 5 mg/kg/day p.o., b.i.d., 14 days
Procedure: Healthy human skin pieces having a width of 0.4 mm and surface area of 3×3 cm were provided from residual skin of routine plastic surgery procedures from the Plastic Surgery Department of the Rambam Medical Center, Isreal. In addition, blood samples from psoriatic patients were taken at a volume of 25 mL.
Twenty-one (21) beige-severe combined immunodeficient mice (SCID) (weight about 20 g) were included in this study. Normal human skin was transplanted onto the beige-SCID mice as previously described by Nickoloff et al., 1995; Wrone-Smith, et al., 1996. A sample of each donor was transplanted onto […] so that the three treatment groups (n=7 mice/group) were homogenous.
PBMC from the psoriatic patient blood were isolated and cultured in the presence of IL-2 (100 U/mL of media) for 14 days to activate the NK cells, as previously described by Gilhar et al., J. Invest. Dermatol. 2002, 119(2):384-91. Four weeks following the engraftment, each mouse was injected with 1×10^7 psoriatic patients activated allogeneic NK cells (1×10^7 cells injected/mouse, n=21). Two weeks following the injections, the mice were divided and treated, twice a day for 14 days. All compounds were dosed at 5 mg/kg/day, divided into b.i.d. doses. To perform p.o. administration, mice were held firmly by gently gripping their fur over the neck with thumb and index fingers and restraining the tail with the little finger. A volume of 0.05 mL of a 1 mg/ml aqueous solution of Compound A was administrated twice a day (b.i.d.) with a syringe through a blunt-ended curved feeding tube, which was inserted into the esophagus. The vehicle (negative) control groups received 0.05 mL (b.i.d.) of a 0.5% carboxymethylcellulose and 0.25% Tween 80. […] Two weeks after starting the treatments (4 weeks following the injections), the skins were harvested. Grafts were analyzed by histology and immunohistochemistry.
Determination of Epidermal Thickness: Skin graft histological assessment was performed by light microscopy both before and after transplantation and two blinded observers performed the evaluations. Epidermal thickness was determined with an ocular micrometer, at a minimum of 50 points along the epidermis selected to represent points of maximal and minimal thickness. Thickness of the suprapapillary plate was similarly measured at 50 points for each sample.
Immunohistochemical Staining: Monoclonal antibodies to human antigens used were as follows for immunohistochemistry on frozen sections: anti-HLA-DR (Becton Dickenson, San Jose, Calif.), and anti-CD54 (ICAM-1) (Biodesign, Saco, Me.). Purified murine IgG was used as a control for the above antibodies. Immunohistochemistry was performed on OCT embedded specimens with a biotin-avidin system (Vectostain, Vector Laboratories, Burlingame, Calif.).
Goat anti-human TNF-α (R&D Systems, Minneapolis, Minn.) was used on deparaffinized and peroxidase blocked slides. Sections were treated with citrate buffer, pH=6, in the microwave oven for 20 minutes. The sections were then cooled for 30 minutes at room temperature and blocked for non-specific binding as well as avidin-biotin. All washes were performed with phosphate-buffered saline-saponin. Anti-TNF-α was applied overnight at 4° C. Slides were then incubated with biotinylated rabbit anti goat-IgG (DAKO, Carpinteria, Calif.), followed by streptavidin horseradish peroxidase (HRP) (Jackson Immunoresearch, West Grove, Pa.). The color was developed with 3-amino-9-ethylcarbazole (AEC).
Scoring of Immunohistochemical Staining: Diffuse staining was defined as positive and intense expression of more than 50 percent of the epidermis versus focal staining which was defined as less than 50 percent of the epidermis. Focal staining may represent positive expression of very small areas.
Statistical Analysis: Statistical analysis was carried out using the one-way ANOVA with a Bonferroni Multiple Comparison post-hoc test using Prism 4.00 (GraphPad Software; San Diego, Calif.).

IC50 [1]: 240 nM and 0.11 µg/mL
IC50 [2]: 23 nM and 0.011 µg/mL
SMILES: CCOc1cc([C@@H](CS(C)(=O)=O)N2Cc3cccc(NC(=O)C4CC4)c3C2=O)ccc1OC [Compound A, cyclopropyl-N-{2-[(1S)-1-(3-ethoxy-4-methoxyphenyl)-2-(methylsulfonyl)ethyl]-3-oxoisoindoline-4-yl}carboxamide]
HLA-DR staining: number of grafts (of 7) with Diffuse pattern [3]: 4 Diffuse
Histological features: Complete Recovery (grafts of 7) [3]: 3/7
Histological features: Partial Recovery (grafts of 7) [3]: 1/7
Histological features: Psoriasiform (grafts of 7) [3]: 3/7
ICAM-1 staining: number of grafts (of 7) with Diffuse pattern [3]: 3 Diffuse
Recovery, partial or complete (grafts of 7) [3]: (4/7)
TNF-α staining: number of grafts (of 7) with Multiple TNF-α positive cells [3]: 3 Multiple
decrease in epidermal thickness compared to vehicle treated animals [3]: ~50%
grafts (of 7) with ICAM-1 reduced to focal or negative expression [3]: 4/7
grafts (of 7) with few or negative TNF-α expressing cells [3]: 4/7
overall response rate (partial plus complete recovery from psoriasis features) [3]: 57%
percentage of grafts with HLA-DR reduced to focal or negative expression [3]: 43%
percentage of grafts with ICAM-1 reduced to focal or negative expression [3]: 57%
percentage of grafts with focal HLA-DR expression [3]: 14.3%
percentage of grafts with negative HLA-DR expression [3]: 28.6%
percentage of grafts with reduced TNF-α expression (partial and complete recovery) [3]: 57%
Epidermal Thickness, Mean ([3]; mean of 7 grafts): 736 μm
Proliferation Index (Ki-67 positive keratinocytes), Mean ([3]; mean of 7 grafts): 26.2%
mean epidermal thickness ([3]; mean of 7 mice): 736 microns
Epidermal Thickness of individual skin graft ([3]; Patient 1): 687 μm
Histological Evaluation of individual skin graft ([3]; Patient 1): Partial recovery w/
Proliferation Index of individual skin graft ([3]; Patient 1): 41.9%
Epidermal Thickness of individual skin graft ([3]; Patient 2): 1098 μm
Histological Evaluation of individual skin graft ([3]; Patient 2): Psoriasiform
Proliferation Index of individual skin graft ([3]; Patient 2): 47.4%
Epidermal Thickness of individual skin graft ([3]; Patient 3): 626 μm
Histological Evaluation of individual skin graft ([3]; Patient 3): Psoriasiform
Proliferation Index of individual skin graft ([3]; Patient 3): 33.5%
Epidermal Thickness of individual skin graft ([3]; Patient 4): 333 μm
Histological Evaluation of individual skin graft ([3]; Patient 4): Complete recovery
Proliferation Index of individual skin graft ([3]; Patient 4): 12.2%
Epidermal Thickness of individual skin graft ([3]; Patient 5): 457 μm
Histological Evaluation of individual skin graft ([3]; Patient 5): Complete recovery
Proliferation Index of individual skin graft ([3]; Patient 5): 9.2%
Epidermal Thickness of individual skin graft ([3]; Patient 6): 627 μm
Histological Evaluation of individual skin graft ([3]; Patient 6): Complete recovery
Proliferation Index of individual skin graft ([3]; Patient 6): 21.4%
Epidermal Thickness of individual skin graft ([3]; Patient 7): 1324 μm
Histological Evaluation of individual skin graft ([3]; Patient 7): Psoriasiform
Proliferation Index of individual skin graft ([3]; Patient 7): 17.5%
